Where two headings read alike, the source gives them in different places.
Molecular target: T1, OGDH (Rattus norvegicus, UniProt Q5XI78)
T1 sequence (Q5XI78 41-1023): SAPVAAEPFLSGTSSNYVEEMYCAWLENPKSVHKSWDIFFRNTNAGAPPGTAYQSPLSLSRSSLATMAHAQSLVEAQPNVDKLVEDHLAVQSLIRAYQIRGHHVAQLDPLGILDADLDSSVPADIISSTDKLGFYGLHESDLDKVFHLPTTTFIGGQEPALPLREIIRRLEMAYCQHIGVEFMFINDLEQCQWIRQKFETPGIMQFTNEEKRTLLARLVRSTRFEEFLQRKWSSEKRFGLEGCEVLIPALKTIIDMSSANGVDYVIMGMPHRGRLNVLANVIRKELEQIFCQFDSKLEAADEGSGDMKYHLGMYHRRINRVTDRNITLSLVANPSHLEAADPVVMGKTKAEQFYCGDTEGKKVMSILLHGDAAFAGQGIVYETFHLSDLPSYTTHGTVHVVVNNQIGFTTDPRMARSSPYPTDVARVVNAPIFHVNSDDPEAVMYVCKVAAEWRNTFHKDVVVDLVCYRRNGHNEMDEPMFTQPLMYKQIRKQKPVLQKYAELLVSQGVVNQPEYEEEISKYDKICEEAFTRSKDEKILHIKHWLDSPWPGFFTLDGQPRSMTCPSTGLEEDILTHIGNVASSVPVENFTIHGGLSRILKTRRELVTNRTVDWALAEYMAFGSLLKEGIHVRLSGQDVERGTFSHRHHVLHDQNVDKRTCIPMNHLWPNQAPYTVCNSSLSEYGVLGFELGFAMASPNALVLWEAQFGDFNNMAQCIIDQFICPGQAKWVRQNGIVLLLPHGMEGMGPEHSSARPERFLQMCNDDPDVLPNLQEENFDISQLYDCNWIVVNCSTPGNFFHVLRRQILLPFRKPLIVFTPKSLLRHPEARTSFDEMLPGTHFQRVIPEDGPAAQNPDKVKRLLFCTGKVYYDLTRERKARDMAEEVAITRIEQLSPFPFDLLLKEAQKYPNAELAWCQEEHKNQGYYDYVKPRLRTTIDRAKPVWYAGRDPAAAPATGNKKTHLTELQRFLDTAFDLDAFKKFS
T1 sequence (Q01205 69-454 partner): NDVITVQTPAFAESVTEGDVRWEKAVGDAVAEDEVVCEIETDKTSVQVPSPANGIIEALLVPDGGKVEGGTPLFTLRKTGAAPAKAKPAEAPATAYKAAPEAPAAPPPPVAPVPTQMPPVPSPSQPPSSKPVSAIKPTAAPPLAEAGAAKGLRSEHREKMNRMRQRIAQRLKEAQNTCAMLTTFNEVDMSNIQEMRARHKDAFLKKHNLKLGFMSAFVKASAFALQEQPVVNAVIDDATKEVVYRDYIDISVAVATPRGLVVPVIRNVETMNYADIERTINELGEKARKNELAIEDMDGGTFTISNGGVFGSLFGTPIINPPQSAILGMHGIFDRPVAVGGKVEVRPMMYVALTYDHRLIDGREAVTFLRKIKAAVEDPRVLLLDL
T1 sequence (Q6P6R2 36-509 partner): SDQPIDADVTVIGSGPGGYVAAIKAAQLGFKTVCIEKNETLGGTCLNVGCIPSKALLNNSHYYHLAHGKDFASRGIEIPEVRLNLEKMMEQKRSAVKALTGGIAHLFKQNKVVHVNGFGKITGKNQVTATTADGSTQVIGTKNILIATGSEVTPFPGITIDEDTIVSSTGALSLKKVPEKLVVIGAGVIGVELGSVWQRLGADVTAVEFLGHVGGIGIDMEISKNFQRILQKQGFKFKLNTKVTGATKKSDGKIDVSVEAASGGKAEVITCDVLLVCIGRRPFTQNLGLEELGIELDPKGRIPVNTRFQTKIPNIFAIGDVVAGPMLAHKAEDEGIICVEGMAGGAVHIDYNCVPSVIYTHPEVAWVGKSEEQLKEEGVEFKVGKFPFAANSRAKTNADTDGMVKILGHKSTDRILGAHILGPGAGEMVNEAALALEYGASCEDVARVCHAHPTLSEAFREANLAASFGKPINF
Assay: OGDH reaction (OG saturation) catalyzed by the enzyme preparation from rat liver
Type: biochemical
Set-up: the tissue fractions with the complexes enriched to a degree allowing for a robust detection of the enzymatic activities, have been used; from tissue
Description: Reactions were started by addition of the enzyme preparations to the assay media. The amount of enzyme preparations (0.074 mg protein for the preparation from liver and 0.023 mg protein for the preparation from heart) were chosen to induce the lowest reliably measured reaction rate (ΔA340 = 0.001/min) at 0.01 mM OA without the phosphonates.
Reaction rates were calculated from linear parts of the product accumulation curves (up to 10 min, dependent on the reaction rate), excluding the initial region, where mixing the reagents and solubilization of the preparation affected the optical density.
The former equation describes one type of the active sites. […] The assumption was based on the presence of the two enzymes, OGDH and OADH, in the employed preparations.
The Km and Amax values obtained in independent experiments using the non-linear and linear regression analyses of the experimental data, were averaged and presented as Mean ± Standard Error of Mean.
The values of Ki were determined as the ratio of the corresponding Intercepts to the Slopes. In the two-site model, the Ki(1) and Ki(2) were calculated separately from the linear approximations of Km,1eff/Amax,1eff vs. [I] and Km,2eff/Amax,2eff vs. [I] dependences, respectively. […] The Ki values obtained from the non-linear and linear regression analyses of the experimental data were averaged and presented as Mean ± Standard Error of Mean.

[1] = Eadie-Hofstee, read-out: Ki, EH
[2] = Lineweaver-Burk, read-out: Ki, LB
[3] = Michaelis-Menten approximation, read-out: Ki, MM
[4] = average of MM, LB, EH, read-out: Ki, Average

SMILES | Ki [1] [µM] | Ki [2] [µM] | Ki [3] [µM] | Amax ([I] 0.5 µM) | Amax ([I] 2 µM) | Amax ([I] 10 µM) | Amax ([I] 50 µM) | Amax ([I] 200 µM) | Amax ([I] 1000 µM) | Amax ([I] 5000 µM) | Ki [4] [µM] | Ki (Ki, Average, average of MM, LB, EH) [µM] | Ki (Ki, EH, Eadie-Hofstee) [µM] | Ki (Ki, LB, Lineweaver-Burk) [µM] | Ki (Ki, MM, Michaelis-Menten approximation) [µM]
O=C(O)CCCCC(=O)P(=O)(O)O [AP, adipoyl phosphonate] | 326 ± 19 | 361 ± 36 | 405 ± 11 | 0.040 ± 0.001 µmol/min per mg of protein | 0.042 ± 0.001 µmol/min per mg of protein | 0.042 ± 0.001 µmol/min per mg of protein | 0.042 ± 0.001 µmol/min per mg of protein | 0.045 ± 0.001 µmol/min per mg of protein | 0.049 ± 0.001 µmol/min per mg of protein | 0.039 ± 0.004 µmol/min per mg of protein | 364 ± 23 |  |  |  | 
O=C(O)CCCC(=O)P(=O)(O)O [GP, glutaryl phosphonate] | 6.2 ± 0.1 | 5.6 ± 0.1 | 7.3 ± 0.4 |  | 0.045 ± 0.001 µmol/min per mg of protein | 0.045 ± 0.001 µmol/min per mg of protein | 0.044 ± 0.001 µmol/min per mg of protein | 0.066 ± 0.011 µmol/min per mg of protein |  |  | 6.3 ± 0.5 |  |  |  | 
O=C(O)CCC(=O)P(=O)(O)O [SP, succinyl phosphonate] |  |  |  |  |  | 0.043 ± 0.001 µmol/min per mg of protein | 0.041 ± 0.001 µmol/min per mg of protein | 0.038 ± 0.002 µmol/min per mg of protein | 0.019 ± 0.002 µmol/min per mg of protein |  |  | 7.4 ± 1.4 | 7.7 ± 0.1 | 4.9 ± 0.1 | 9.6 ± 0.2

— paper PMC7835950 (Frontiers in Chemistry, 2021)
